Assay results published in publication PMC2939729 (Cancer cell, 2010).

Experiments:
[1] = biological target: BMK1 (Homo sapiens, UniProt Q13164); assay: EGF-induced BMK1 activation in HeLa cells; type: cell-based; conditions: 1 μM compound for one hour, EGF 17 min
[2] = test system: ERK1/2; assay: EGF-induced ERK1/2 activation in HeLa cells; type: cell-based, human; conditions: 1 μM compound for one hour, EGF 17 min

BMK1, sequence (Q13164 whole entry): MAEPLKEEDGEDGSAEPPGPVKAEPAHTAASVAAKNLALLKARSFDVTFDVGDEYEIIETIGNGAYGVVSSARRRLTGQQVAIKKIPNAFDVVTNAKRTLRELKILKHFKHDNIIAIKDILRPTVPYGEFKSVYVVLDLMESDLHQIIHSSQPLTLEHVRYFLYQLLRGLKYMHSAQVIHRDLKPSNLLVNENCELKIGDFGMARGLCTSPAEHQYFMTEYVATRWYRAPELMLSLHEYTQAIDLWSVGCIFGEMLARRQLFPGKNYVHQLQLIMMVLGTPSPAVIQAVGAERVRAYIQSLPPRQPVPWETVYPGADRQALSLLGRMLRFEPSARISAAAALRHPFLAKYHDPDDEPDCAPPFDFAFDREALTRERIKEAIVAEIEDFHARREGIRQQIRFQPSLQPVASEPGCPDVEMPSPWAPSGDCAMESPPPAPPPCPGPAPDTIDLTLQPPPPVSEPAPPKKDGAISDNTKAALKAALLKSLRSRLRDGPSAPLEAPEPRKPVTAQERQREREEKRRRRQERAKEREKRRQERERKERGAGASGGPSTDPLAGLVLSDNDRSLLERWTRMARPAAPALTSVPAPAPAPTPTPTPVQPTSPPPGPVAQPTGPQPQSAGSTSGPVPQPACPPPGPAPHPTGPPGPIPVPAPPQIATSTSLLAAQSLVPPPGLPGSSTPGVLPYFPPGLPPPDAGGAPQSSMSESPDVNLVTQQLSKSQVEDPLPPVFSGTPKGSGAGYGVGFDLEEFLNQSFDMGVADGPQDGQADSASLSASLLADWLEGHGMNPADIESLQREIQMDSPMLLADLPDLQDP

## O=C(NOCC1CC1)c1ccc(F)c(F)c1Nc1ccc(I)cc1Cl [PD184352, reference compound]
[1]
  Growth factor-induced activation of cellular BMK1: not BMK1 activation
[2]
  Growth factor-induced activation of cellular ERK1/2: only blocked ERK1/2
